Assay results taken from US4920134A, “2-O-pyrimidinyl glycerol derivatives” (Takeda Chemical Industries, Ltd., priority 1987, dated 1990).

Experiments:
[1] = tested on: murine breast cancer MM46 cells; assay: Antitumor activity in C3H mice inoculated with murine breast cancer MM46 cells; format: in vivo, C3 H mice; conditions: i.p., 0.25 mg/mouse per administration; for life-span prolongation ratio T/C: once a day for 4 days from 2nd day, calculated only on survived days of died mice; for No. of survivors/No. of tested animals: once a day for 4 days, on the 60th day
Excerpt: (§1) Antitumor activity of compounds in Examples
C3 H mice were intraperitoneally inoculated with 1×10^4 murine breast cancer MM46 cells, and then intraperitoneally given a compound of Examples dissolved in physiological saline once a day for 4 days from the 2nd day after the inoculation. The life-span prolongation ratio* (T/C %) against the control group without medication and the number of surviving mice on the 60th day are shown in Table 3.
*Calculated only on the survived days of died mice

[2] = tested on: HL-60 cells; assay: Proliferation-inhibitory effect against human myelocytic leukemia HL-60 cells ([3H]thymidine incorporation); format: cell-based; conditions: 20 h + 4 h with [3H]thymidine, 37° C.
Method: Proliferation-inhibitory effect (IC50) of compounds in Examples against human myelocytic leukemia HL-60 cells HL-60 cells (human leukemia cell line) were suspended in GIT medium (Wako Pure Chemicals) containing a test compound to a concentration of 2×10^5 cells/ml, and 0.2 ml of the suspension was transferred to each well of a microwell plate having 96 wells. […] To determine the amount of thymidine incorporated into the cells, an acid-insoluble fraction was collected by a glass filter, and the radioactivity was measured by a liquid scintillation counter. The concentration of the drug which was required for 50% reduction of incorporated radioactivity from that of the control group without medication was taken as the IC50 value of the compound.

[3] = tested on: Sarcoma 180 cells; assay: Antitumor activity in ICR mice inoculated with Sarcoma 180 cells; format: in vivo; conditions: Sarcoma 180, ICR mice, i.p., 0.33 mg/mouse; for life-span prolongation ratio T/C: 3 times (1 hour, 1 day, 2 days after inoculation), calculated only on survival days of died mice; for No. of survivors/No. of tested animals: 3 times, on the 60th day
Method: as §1
ICR mice were intraperitoneally inoculated with 1×10^5 Sarcoma 180 cells per mouse, and then intraperitoneally given 0.33 mg/mouse of a compound of Examples dissolved in physiological saline, three times in total, i.e. 1 hour, 1 day and 2 days after the inoculation. The life-span prolongation ratio* (T/C %) against the control group without medication and the number of surviving mice on the 60th day are shown in Table 2.
*Calculated only on the survival days of died mice.

[4] = tested on: P388 cells; assay: Antitumor activity in CDF1 mice inoculated with P388 cells; format: in vivo; conditions: i.p., 0.5 mg/mouse, twice (1 hour and 5 days after inoculation)
Method: CDF1 mice (5 heads per group) were intraperitoneally inoculated with 1×10^6 P388 cells per mouse, and then intraperitoneally given 0.5 mg/mouse of the compound in Example 2 dissolved in physiological saline, twice in total, i.e. 1 hour and 5 days after the inoculation. The life-span prolongation ratio (T/C %) against the control group without medication was 151%.

| Structure (SMILES) | IC50 [2] [µg/mL] | life-span prolongation ratio T/C [1] [%] | No. of survivors/No. of tested animals [1] | other results |
| --- | --- | --- | --- | --- |
| CCCCCCCCCCCCCCCCCCOCC(COCCOCC[n+]1cccc(O)c1)Oc1ncccn1.[Cl-] (stereo not shown) [Example 9, 3-Hydroxy-1-[2-[2-[3-octadecyloxy-2-(pyrimidin-2-yloxy)propoxy]ethoxy]ethyl]pyridinium chloride] | – | 132 | 1/3 | – |
| CCCCCCCCCCCCCCCCCCOCC(COCCOCC[n+]1cccc(C(N)=O)c1)Oc1ccncn1.[Cl-] (stereo not shown) [Example 12, 3-Carbamoyl-1-[2-[2-[3-octadecyloxy-2-(pyrimidin-4-yloxy)propoxy]ethoxy]ethyl]pyridinium chloride] | 2.5 | – | – | – |
| CCCCCCCCCCCCCCCCCCOCC(COCCOCC[n+]1cccc(C(=O)[O-])c1)Oc1ncccn1 (stereo not shown) [Example 6, 1-[2-[2-[3-Octadecyloxy-2-(pyrimidin-2-yloxy)propoxy]ethoxy]ethyl]pyridinio-3-carboxylate] | – | 121 | 4/5 | – |
| CCCCCCCCCCCCCCCCCCOCC(COCCOCC[N+](C)(C)C)Oc1ncccn1.[Cl-] (stereo not shown) [Example 1, N-2-[2-[3-Octadecyloxy-2-(pyrimidin-2-yloxy)propoxy]ethoxy]ethyl-N,N,N-trimethylammonium chloride] | 0.63 | 160 | 4/5 | life-span prolongation ratio T/C [3]: 200%; No. of survivors/No. of tested animals [3]: 0/5 |
| CCCCCCCCCCCCCCCCCCOCC(COCCOCC[N+](C)(C)C)Oc1cccnn1.[Cl-] (stereo not shown) [Example 3, N-[2-[2-[3-Octadecyloxy-2-(pyridazin-3-yloxy)propoxy]ethoxy]ethyl]-N,N,N-trimethylammonium chloride] | 0.32 | – | – | life-span prolongation ratio T/C [3]: 269%; No. of survivors/No. of tested animals [3]: 0/5 |
| CCCCCCCCCCCCCCCCCCOCC(COCCOCC[N+](C)(C)C)Oc1ccc(Cl)nn1 (stereo not shown) [Example 2, N-[2-[2-[2-(3-Chloropyridazine-6-yloxy)-3-octadecyloxy]propoxy]ethoxy]ethyl-N,N,N-trimethylammonium chloride] | 1.25 | 174 | 1/5 | life-span prolongation ratio (T/C %) [4]: 151% |
| CCCCCCCCCCCCCCCCCCOCC(COCCOCC[n+]1ccsc1)Oc1ncccn1.[Cl-] (stereo not shown) [Example 4, 3-[2-[2-[3-Octadecyloxy-2-(pyrimidin-2-yloxy)propoxy]ethoxy]ethyl]thiazolium chloride] | 2.5 | – | – | life-span prolongation ratio T/C [3]: 244%; No. of survivors/No. of tested animals [3]: 0/4 |

More lines, main results first:

| IC50 [2] [µg/mL] | Structure (SMILES) | life-span prolongation ratio T/C [1] [%] | No. of survivors/No. of tested animals [1] | other results |
| --- | --- | --- | --- | --- |
| 0.63 | CCCCCCCCCCCCCCCCCCOCC(COCCOCC[n+]1cccc(C(N)=O)c1)Oc1ncccn1.[Cl-] (stereo not shown) [Example 5, 3-Carbamoyl-1-[2-[2-[3-octadecyloxy-2-(pyrimidin-2-yloxy)propoxy]ethoxy]ethyl]pyridinium chloride] | – | – | – |
| 0.63 | CCCCCCCCCCCCCCCCCCOCC(COCCOCC[n+]1ccn(C)c1)Oc1ncccn1.[Cl-] (stereo not shown) [Example 10, 1-Methyl-3-[2-[2-[3-octadecyloxy-2-(pyrimidin-2-yloxy)propoxy]ethoxy]ethyl]imidazolium chloride] | – | – | – |
| 1.25 | CCCCCCCCCCCCCCCCCCOCC(COCCOCC[N+](C)(C)C)Oc1ccncn1.[Cl-] (stereo not shown) [Example 11, N-2-[2-[3-Octadecyloxy-2-(pyrimidin-4-yloxy)propoxy]ethoxy]ethyl-N,N,N-trimethylammonium chloride] | – | – | – |
| 1.25 | CCCCCCCCCCCCCCCCCCOCC(COCCOCC[n+]1ccc(C(C)(C)C)cc1)Oc1ncccn1 (stereo not shown) [Example 8, 4-t.-Butyl-1-[2-[2-[3-octadecyloxy-2-(pyrimidin-2-yloxy)propoxy]ethoxy]ethyl]pyridinium chloride] | – | – | – |
| 2.5 | CCCCCCCCCCCCCCCCCCOCC(COCCOCCOCC[N+](C)(C)C)Oc1ncccn1.[Cl-] (stereo not shown) [Example 14, N-2-[2-[2-[3-Octadecyloxy-2-(pyrimidin-2-yloxy)propoxy]ethoxy]ethoxy]ethyl-N,N,N-trimethylammonium chloride] | – | – | – |
